What was measured:
[1] = cited from earlier work
[2] = system: mycobacterium species; conditions: 1 to 100 mg once or twice weekly; cited from earlier work
[3] = Clinical trial: pharmacokinetics of rifalazil in plasma after single oral doses; conditions: for AUC / CL/F / Cmax / half-life: male, human, in vivo, po; for half-life / K10 / K12 / K21 / V1/F / Vdβ/F: males

In the case of `CO[C@H]1/C=C/O[C@@]2(C)Oc3c(C)c(O)c4c(=O)c(c5oc6cc(N7CCN(CC(C)C)CC7)cc(O)c6nc-5c4c3C2=O)NC(=O)/C(C)=C\C=C\[C@H](C)[C@H](O)[C@@H](C)[C@@H](O)[C@@H](C)[C@H](OC(C)=O)[C@@H]1C` [rifalazil, Rifalazil], the “incidence of adverse reactions (headaches, fevers, flu-like symptoms)” value ([1]; 1 to 100 mg once or twice weekly) is given as “reduced, but did not eliminate”, the adverse reactions ([1]; clinical trials, daily administration, 10 mg per day to 10 g per day) is given as “many adverse reactions occurred” and the “efficacy against mycobacterium species” value [2] is given as “efficacious”. For the same compound, the AUC ([3]; 2.5 mg) was 185 ng·h/mL, the CL/F ([3]; 2.5 mg) was 3 mL/min/kg and the Cmax ([3]; 2.5 mg) was 7.9 ng/mL. For the same compound, the half-life ([3]; 2.5 mg, Absorption t½, single 2.5 mg oral dose) was 0.67 h, the half-life ([3]; 2.5 mg, Distribution t½, single 2.5 mg oral dose) was 7.3 h and the half-life ([3]; 2.5 mg, Elimination t½, single 2.5 mg oral dose) was 139 h. The AUC ([3]; 50 mg) was 1350 ng·h/mL, the CL/F ([3]; 50 mg) was 8.17 mL/min/kg and the Cmax ([3]; 50 mg) was 57.3 ng/mL. For the same compound, the half-life ([3]; 50 mg, Absorption t½, single 50 mg oral dose) was 0.5 h, the half-life ([3]; 50 mg, Distribution t½, single 50 mg oral dose) was 11.6 h and the half-life ([3]; 50 mg, Elimination t½, single 50 mg oral dose) was 116 h. It also gave a K10 ([3]; single 2.5 mg oral dose) of 0.045 h⁻¹, a K12 ([3]; single 2.5 mg oral dose) of 0.044 h⁻¹ and a K21 ([3]; single 2.5 mg oral dose) of 0.011 h⁻¹. For the same compound, the V1/F ([3]; single 2.5 mg oral dose) was 4.08 L/kg, the Vdβ/F ([3]; single 2.5 mg oral dose) was 36.0 L/kg and the K10 ([3]; single 50 mg oral dose) was 0.039 h⁻¹. It also gave a K12 ([3]; single 50 mg oral dose) of 0.018 h⁻¹, a K21 ([3]; single 50 mg oral dose) of 0.009 h⁻¹ and a V1/F ([3]; single 50 mg oral dose) of 12.7 L/kg. The Vdβ/F ([3]; single 50 mg oral dose) was 82.4 L/kg.
